This passage reports IC50 results from patent publication US20250186391A1, “ORAL COMPLEMENT FACTOR D INHIBITORS” (BioCryst Pharmaceuticals, Inc., priority 2019, published 2025).

The experiment has as its target Factor D (Homo sapiens (Human), UniProt P00746). The experiment in a line: Factor D esterolytic assay. Type of experiment: biochemical. The settings on record: Z-Lys-SBzl substrate, 100 mM HEPES, 500 mM NaCl, pH 7.5, 10% DMSO; tested a minimum of three times; read-out: Measured Ki (IC50) Value for Compounds: IC50. In short, it runs like this: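 Chromogenic thioesterase read-out: Z-Lys-SBzl (1.29 mM) hydrolysis by human Factor D, thiol detected with DTNB at 405 nm (690 nm background subtracted) for 600 s. Run in 100 mM HEPES, 500 mM NaCl, pH 7.5, 10% DMSO, substrate added immediately or after room-temperature preincubation. IC50 from percent inhibition versus enzyme alone, n≥3.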

pIC50: −log10 of the molar value.

Factor D, sequence (P00746 26-253): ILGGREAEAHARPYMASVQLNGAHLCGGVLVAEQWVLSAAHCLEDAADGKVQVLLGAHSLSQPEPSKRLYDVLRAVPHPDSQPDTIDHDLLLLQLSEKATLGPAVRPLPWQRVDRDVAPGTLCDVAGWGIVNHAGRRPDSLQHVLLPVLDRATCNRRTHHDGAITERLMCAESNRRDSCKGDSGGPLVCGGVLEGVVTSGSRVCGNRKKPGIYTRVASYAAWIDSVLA

Broadly, the pIC50 is −log10 of the IC50, conventionally taken in molar units. `Cc1ncc(-c2cc(-c3cccc(CN)c3)cc3c(COc4ccccc4CC(=O)O)coc23)cn1` [Compound 165c, 2-(2-((5-(3-(aminomethyl)phenyl)-7-(2-methylpyrimidin-5-yl)benzofuran-3-yl)methoxy)phenyl)acetic acid]: the pIC50 was greater than 6.00.
`N#Cc1cccc(CC(=O)O)c1OCc1coc2ccc(-c3cccc(CN)c3)cc12` [Compound 115c, 2-(2-((5-(3-(aminomethyl)phenyl)benzofuran-3-yl)methoxy)-3-cyanophenyl)acetic acid]: the pIC50 was greater than 6.00.
